# Molecular target: T1, BTK (Homo sapiens, UniProt Q06187)
# T1 construct: BTK Degradative Activity of Exemplary Compounds of the Present Disclosure in a RAMOS Cell Line; host or cells: RAMOS
# Assay: BTK degradative activity in a RAMOS cell line (Western blot)
# Assay type: cell-based
# Conditions: 6 hours after administration, read-out: RAMOS BTK Degradation DC50
# Description: RAMOS (ATCC) cells were plated in 24-well plates at 8×10^5 cells/well in the RPMI growth medium containing 10% heat-inactivated FBS and 1× Penicillin Streptomycin, and then incubated at 37° C. overnight. The following day, the test compound was administered to the cells by using 1000× compound stock solution prepared in DMSO at various concentrations. After administration of the compound, the cells were then incubated at 37° C. for 6 hours.
# Upon completion, the cells were collected by centrifugation and lysed in Laemmli sample buffer (1×; VWR International). Proteins in cell lysate were separated by SDS-PAGE and transferred to Odyssey nitrocellulose membranes (Licor) with Iblot® dry blotting transfer system (ThermoFisher). Nonspecific binding was blocked by incubating membranes with Intercept Blocking Buffer (Licor) for 1 hour at room temperature with gentle shaking. The membranes were then incubated overnight at 4° C. with primary antibodies anti-BTK (Cell signaling, cat. #8547) and anti-GAPDH (Cell signaling, cat. #5179) diluted in Intercept Blocking Buffer containing 0.1% Tween 20. After washing 3 times with TBS-T, the membranes were incubated with IRDye® 800CW goat anti-mouse IgG (1:20,000, Licor) or IRDye® 800CW goat anti-rabbit IgG (1:20,000, Licor) for 1 hour. After TBS-T washes, membranes were rinsed in TBS and scanned on Odyssey® CLx Imaging System (Licor). The bands were quantified using Image Studio™ Software (Licor).
# Table 3 summarizes the BTK degradative activity of exemplary compounds of the present disclosure in a RAMOS cell line 6 hours after administration. The DC50 values (i.e., the concentration of test compound at which 50% of the target protein is degraded) were calculated. A designation of “A” corresponds to a DC50 value less than 10 nM. A designation of “B” corresponds to a DC50 value greater than or equal to 10 nM and less than 100 nM. A designation of “C” corresponds to a DC50 value greater than or equal to 100 nM.
# T1 sequence (Q06187 whole entry): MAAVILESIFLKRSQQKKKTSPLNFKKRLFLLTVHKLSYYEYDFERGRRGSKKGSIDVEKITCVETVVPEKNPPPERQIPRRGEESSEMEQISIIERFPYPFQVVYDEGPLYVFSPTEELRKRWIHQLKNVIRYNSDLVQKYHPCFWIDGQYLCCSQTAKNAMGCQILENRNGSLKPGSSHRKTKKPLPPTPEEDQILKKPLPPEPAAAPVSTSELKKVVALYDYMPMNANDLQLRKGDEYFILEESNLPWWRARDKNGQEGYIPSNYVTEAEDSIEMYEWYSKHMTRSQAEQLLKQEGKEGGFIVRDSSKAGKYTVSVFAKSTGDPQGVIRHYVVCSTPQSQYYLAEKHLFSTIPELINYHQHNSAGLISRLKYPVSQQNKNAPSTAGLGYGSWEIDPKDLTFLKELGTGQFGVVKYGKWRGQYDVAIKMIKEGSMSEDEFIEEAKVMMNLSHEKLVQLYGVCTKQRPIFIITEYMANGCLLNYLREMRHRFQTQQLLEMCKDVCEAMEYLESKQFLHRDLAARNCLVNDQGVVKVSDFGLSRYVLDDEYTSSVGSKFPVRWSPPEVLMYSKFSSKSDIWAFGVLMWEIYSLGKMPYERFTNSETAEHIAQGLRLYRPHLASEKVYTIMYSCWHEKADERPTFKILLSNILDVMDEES
row,SMILES,DC50 [nM]
1,"O=C1CCC(N2C(=O)c3ccc(OCCCCCCCN4CCN(c5ccc(C(=O)N6CCC[C@@H](Nc7ncnc8[nH]cc(C(=O)c9ccc(Oc%10ccccc%10)cc9Cl)c78)C6)cn5)CC4)cc3C2=O)C(=O)N1 (stereo partly drawn) [Compound 1, 5-((7-(4-(5-((R)-3-((5-(2-chloro-4-phenoxybenzoyl)-7H-pyrrolo [2,3-d]pyrimidin-4-yl)amino)piperidine-1-carbonyl)pyridin-2-yl)piperazin-1-yl)heptyl)oxy)-2-(2,6-dioxopiperidin-3-yl)isoindoline-1,3-dione]",≥ 100
2,"O=C1CCC(N2C(=O)c3ccc(N4CCN(c5ccc(C(=O)N6CCC[C@@H](Nc7ncnc8[nH]cc(C(=O)c9ccc(Oc%10ccccc%10)cc9Cl)c78)C6)cn5)CC4)cc3C2=O)C(=O)N1 (stereo partly drawn) [Compound 2, 5-(4-(5-((R)-3-((5-(2-chloro-4-phenoxybenzoyl)-7H-pyrrolo[2,3-d]pyrimidin-4-yl)amino)piperidine-1-carbonyl)pyridin-2-yl)piperazin-1-yl)-2-(2,6-dioxopiperidin-3-yl)isoindoline-1,3-dione]",≥ 100
3,"O=C1CCC(N2C(=O)c3ccc(OCCCCCCN4CCN(c5ccc(C(=O)N6CCC[C@@H](Nc7ncnc8[nH]cc(C(=O)c9ccc(Oc%10ccccc%10)cc9Cl)c78)C6)cn5)CC4)cc3C2=O)C(=O)N1 (stereo partly drawn) [Compound 3, 5-((6-(4-(5-((R)-3-((5-(2-chloro-4-phenoxybenzoyl)-7H-pyrrolo [2,3-d]pyrimidin-4-yl)amino)piperidine-1-carbonyl)pyridin-2-yl)piperazin-1-yl)hexyl)oxy)-2-(2,6-dioxopiperidin-3-yl)isoindoline-1,3-dione]",≥ 100
4,"O=C1CCC(N2C(=O)c3ccc(OCCCN4CCN(c5ccc(C(=O)N6CCC[C@@H](Nc7ncnc8[nH]cc(C(=O)c9ccc(Oc%10ccccc%10)cc9Cl)c78)C6)cn5)CC4)cc3C2=O)C(=O)N1 (stereo partly drawn) [Compound 4, 5-(3-(4-(5-((R)-3-((5-(2-chloro-4-phenoxybenzoyl)-7H-pyrrolo [2,3-d]pyrimidin-4-yl)amino)piperidine-1-carbonyl)pyridin-2-yl)piperazin-1-yl)propoxy)-2-(2,6-dioxopiperidin-3-yl)isoindoline-1,3-dione]",≥ 100
5,"O=C1CCC(N2C(=O)c3ccc(OCCN4CCN(c5ccc(C(=O)N6CCC[C@@H](Nc7ncnc8[nH]cc(C(=O)c9ccc(Oc%10ccccc%10)cc9Cl)c78)C6)cn5)CC4)cc3C2=O)C(=O)N1 (stereo partly drawn) [Compound 5, 5-(2-(4-(5-((R)-3-((5-(2-chloro-4-phenoxybenzoyl)-7H-pyrrolo[2,3-d]pyrimidin-4-yl)amino)piperidine-1-carbonyl)pyridin-2-yl)piperazin-1-yl)ethoxy)-2-(2,6-dioxopiperidin-3-yl)isoindoline-1,3-dione]",≥ 100
6,"O=C1CCC(N2C(=O)c3ccc(OCCCCCN4CCN(c5ccc(C(=O)N6CCC[C@@H](Nc7ncnc8[nH]cc(C(=O)c9ccc(Oc%10ccccc%10)cc9Cl)c78)C6)cn5)CC4)cc3C2=O)C(=O)N1 (stereo partly drawn) [Compound 6, 5-((5-(4-(5-((R)-3-((5-(2-chloro-4-phenoxybenzoyl)-7H-pyrrolo [2,3-d]pyrimidin-4-yl)amino)piperidine-1-carbonyl)pyridin-2-yl)piperazin-1-yl)pentyl)oxy)-2-(2,6-dioxopiperidin-3-yl)isoindoline-1,3-dione]",≥ 100
7,"O=C1CCC(N2C(=O)c3ccc(N4CCN(CCCCCC(=O)N5CCC[C@@H](Nc6ncnc7[nH]cc(C(=O)c8ccc(Oc9ccccc9)cc8Cl)c67)C5)CC4)cc3C2=O)C(=O)N1 (stereo partly drawn) [Compound 7, 5-(4-(6-((R)-3-((5-(2-chloro-4-phenoxybenzoyl)-7H-pyrrolo[2,3-d]pyrimidin-4-yl)amino)piperidin-1-yl)-6-oxohexyl)piperazin-1-yl)-2-(2,6-dioxopiperidin-3-yl)isoindoline-1,3-dione]",10 to 100
8,O=C1CCC(N2C(=O)c3ccc(N4CCN(CCCCCCC(=O)N5CCC[C@@H](Nc6ncnc7[nH]cc(C(=O)c8ccc(Oc9ccccc9)cc8Cl)c67)C5)CC4)cc3C2=O)C(=O)N1 (stereo partly drawn) [Compound 8],10 to 100
9,"O=C1CCC(N2C(=O)c3ccc(N4CCN(Cc5ccc(C(=O)N6CCC[C@@H](Nc7ncnc8[nH]cc(C(=O)c9ccc(Oc%10ccccc%10)cc9Cl)c78)C6)cn5)CC4)cc3C2=O)C(=O)N1 (stereo partly drawn) [Compound 9, 5-(4-((5-((R)-3-((5-(2-chloro-4-phenoxybenzoyl)-7H-pyrrolo[2,3-d]pyrimidin-4-yl)amino)piperidine-1-carbonyl)pyridin-2-yl)methyl)piperazin-1-yl)-2-(2,6-dioxopiperidin-3-yl)isoindoline-1,3-dione]",10 to 100
10,"O=C1CCC(N2C(=O)c3ccc(N4CCN(CC5CCN(c6ccc(C(=O)N7CCC[C@@H](Nc8ncnc9[nH]cc(C(=O)c%10ccc(Oc%11ccccc%11)cc%10Cl)c89)C7)cn6)CC5)CC4)cc3C2=O)C(=O)N1 (stereo partly drawn) [Compound 10, 5-(4-((1-(5-((R)-3-((5-(2-chloro-4-phenoxybenzoyl)-7H-pyrrolo[2,3-d]pyrimidin-4-yl)amino)piperidine-1-carbonyl)pyridin-2-yl)piperidin-4-yl)methyl)piperazin-1-yl)-2-(2,6-dioxopiperidin-3-yl)isoindoline-1,3-dione]",≥ 100
11,"O=C1CCC(N2C(=O)c3ccc(N4CCN(CCCCC(=O)N5CCC[C@@H](Nc6ncnc7[nH]cc(C(=O)c8ccc(Oc9ccccc9)cc8Cl)c67)C5)CC4)cc3C2=O)C(=O)N1 (stereo partly drawn) [Compound 11, 5-(4-(5-((R)-3-((5-(2-chloro-4-phenoxybenzoyl)-7H-pyrrolo[2,3-d]pyrimidin-4-yl)amino)piperidin-1-yl)-5-oxopentyl)piperazin-1-yl)-2-(2,6-dioxopiperidin-3-yl)isoindoline-1,3-dione]",10 to 100
12,"O=C1CCC(N2C(=O)c3ccc(N4CCN(CCCCCCCN5CCC(Nc6ncnc7[nH]cc(C(=O)c8ccc(Oc9ccccc9)cc8Cl)c67)CC5)CC4)cc3C2=O)C(=O)N1 (stereo not drawn) [Compound 12, 5-(4-(7-(4-((5-(2-chloro-4-phenoxybenzoyl)-7H-pyrrolo[2,3-d]pyrimidin-4-yl)amino)piperidin-1-yl)heptyl)piperazin-1-yl)-2-(2,6-dioxopiperidin-3-yl)isoindoline-1,3-dione]",10 to 100
13,"O=C1CC[C@H](N2Cc3cc(N4CCN(CCCCCC(=O)N5CCC(Nc6ncnc7[nH]cc(C(=O)c8ccc(Oc9ccccc9)cc8Cl)c67)CC5)CC4)ccc3C2=O)C(=O)N1 [Compound 13, (S)-3-(5-(4-(6-(4-((5-(2-chloro-4-phenoxybenzoyl)-7H-pyrrolo[2,3-d]pyrimidin-4-yl)amino)piperidin-1-yl)-6-oxohexyl)piperazin-1-yl)-1-oxoisoindolin-2-yl)piperidine-2,6-dione]",< 10
14,"O=C1CC[C@H](N2Cc3cc(N4CCN(CCCCC(=O)N5CCC[C@@H](Nc6ncnc7[nH]cc(C(=O)c8ccc(Oc9ccccc9)cc8Cl)c67)C5)CC4)ccc3C2=O)C(=O)N1 [Compound 14, (S)-3-(5-(4-(5-((R)-3-((5-(2-chloro-4-phenoxybenzoyl)-7H-pyrrolo[2,3-d]pyrimidin-4-yl)amino)piperidin-1-yl)-5-oxopentyl)piperazin-1-yl)-1-oxoisoindolin-2-yl)piperidine-2,6-dione]",10 to 100
15,"O=C1CCC(N2C(=O)c3ccc(N4CCN(CCCCCCN5CCC[C@@H](Nc6ncnc7[nH]cc(C(=O)c8ccc(Oc9ccccc9)cc8Cl)c67)C5)CC4)cc3C2=O)C(=O)N1 (stereo partly drawn) [Compound 15, 5-(4-(6-((R)-3-((5-(2-chloro-4-phenoxybenzoyl)-7H-pyrrolo[2,3-d]pyrimidin-4-yl)amino)piperidin-1-yl)hexyl)piperazin-1-yl)-2-(2,6-dioxopiperidin-3-yl)isoindoline-1,3-dione]",≥ 100
16,"O=C1CC[C@H](N2Cc3cc(N4CCN(CCCCCC(=O)N5CCC[C@@H](Nc6ncnc7[nH]cc(C(=O)c8ccc(Oc9ccccc9)cc8Cl)c67)C5)CC4)ccc3C2=O)C(=O)N1 [Compound 16, (S)-3-(5-(4-(6-((R)-3-((5-(2-chloro-4-phenoxybenzoyl)-7H-pyrrolo[2,3-d]pyrimidin-4-yl)amino)piperidin-1-yl)-6-oxohexyl)piperazin-1-yl)-1-oxoisoindolin-2-yl)piperidine-2,6-dione]",10 to 100
17,"O=C1CCC(N2Cc3cc(N4CCN(CCCCCCC(=O)N5CCC[C@@H](Nc6ncnc7[nH]cc(C(=O)c8ccc(Oc9ccccc9)cc8Cl)c67)C5)CC4)ccc3C2=O)C(=O)N1 (stereo partly drawn) [Compound 17, 3-(5-(4-(7-((R)-3-((5-(2-chloro-4-phenoxybenzoyl)-7H-pyrrolo[2,3-d]pyrimidin-4-yl)amino)piperidin-1-yl)-7-oxoheptyl)piperazin-1-yl)-1-oxoisoindolin-2-yl)piperidine-2,6-dione]",10 to 100
18,"O=C1CCC(N2C(=O)c3ccc(N4CCN(CCCCCCN5CCC(Nc6ncnc7[nH]cc(C(=O)c8ccc(Oc9ccccc9)cc8Cl)c67)CC5)CC4)cc3C2=O)C(=O)N1 (stereo not drawn) [Compound 18, 5-(4-(6-(4-((5-(2-chloro-4-phenoxybenzoyl)-7H-pyrrolo[2,3-d]pyrimidin-4-yl)amino)piperidin-1-yl)hexyl)piperazin-1-yl)-2-(2,6-dioxopiperidin-3-yl)isoindoline-1,3-dione]",≥ 100

# Reference: patent US11530222B2, “Substituted pyrrolopyrimidine and pyrazolopyrimidine as Bruton's tyrosine kinase (BTK) degraders” (ACCUTAR BIOTECHNOLOGY INC., priority 2021, dated 2022)
